Data: patent publication US20130172294A1, “Treatment with VB-201” (Vascular Biogenics Ltd., priority 2010, published 2013)
“And” between values parts separate entries of the source, which are not always exact repeats. Equal entries are not always repeated. Where two headings read alike, the source gives them in different places.

How the values were obtained:
interferon-γ (IFN-γ) = tested on: interferon-γ (IFN-γ)
Description: Plasma levels of interleukin-23 (IL-23) and interferon-γ (IFN-γ) were determined using the FlowCytomix human simplex kits (Bender Medsystems) for the aforementioned cytokines according to the manufacturer instructions. Acquisition of samples was performed using FacsCalibur (Becton Dickinson). Results were analyzed with the FlowCytomix Pro 2.2 Software.
Healthy subjects were treated once a day with 40 mg or 80 mg of VB-201, according to the procedures described in Example 4. Plasma was collected on day 0 (pre-dosing), on day 14 after dosing, and on day 28 after dosing (when administration lasted 28 days). Plasma levels of interleukin-23 (IL-23) and interferon-γ (IFN-γ) were determined as described hereinabove.

[1] = Single-dose pharmacokinetics of VB-201 in plasma (Example 1); format: in vivo, human; details: for AUC(0-infinity): in ng·h/mL
Description: Determination of VB-201 concentrations in plasma was performed using an HPLC-MS/MS (high performance liquid chromatography with tandem mass spectrometric detection) assay. Calibration was for a range of from 5 to 500 ng/ml for low doses and from 50 to 5000 ng/ml for high doses. Pharmacokinetic parameters were estimated by using a non-compartmental method, except for the AUC (area under curve), which was determined using a (log-) trapezoidal rule as the area above the previous trough level. […] All subjects were healthy male volunteers. Five cohorts of six subjects each received a single dose of 1, 3, 10, 30 or 50 mg VB-201. 10 subjects received a placebo. The VB-201 was formulated in gelatin capsules enterocoated with Eudragit®. […] Evaluation of relative bioavailability was performed for the primary target parameters AUC (area under the concentration-time curve) and Cmax-(maximum plasma concentration).

Structure (SMILES): CCCCCCCCCCCCCCCCOCC(COP(=O)([O-])OCC[N+](C)(C)C)OCCCCC(=O)O (stereo not drawn) [VB-201, 1-hexadecyl-2-(4′-carboxybutyl)-glycerol-3-phosphocholine]
- IFN-γ plasma levels (interferon-γ (IFN-γ); 40 mg per day, 14 days, one subject (second had no detectable levels)): considerably reduced
- IFN-γ plasma levels (interferon-γ (IFN-γ); 80 mg per day, 28 days, two subjects (third had no detectable levels)): considerably reduced
- AUC(0-168) ([1]; single oral dose 1 mg): 501 ± 241 ng·h/mL
- AUC(0-last non-BLQ) ([1]; single oral dose 1 mg): 388 ± 168 ng·h/mL
- AUMC ([1]; single oral dose 1 mg): 70178 ± 38633 hours^2*ng/ml
- Cavg (0-168) ([1]; single oral dose 1 mg): 2.98 ± 1.43 ng/mL
- Cl/F ([1]; single oral dose 1 mg): 1.44 ± 0.087 L/h
- Cmax ([1]; single oral dose 1 mg): 12.52 ± 2.42 ng/mL
- Estimated amount circulating ([1]; single oral dose 1 mg): 0.26 ± 0.05 mg
- Estimated minimum bioavailability ([1]; single oral dose 1 mg): 26 ± 5%
- Ke ([1]; single oral dose 1 mg): 0.0165 ± 0.0099 h⁻¹
- MTT ([1]; single oral dose 1 mg): 76 ± 27 h
- T1/2 ([1]; single oral dose 1 mg): 51 ± 19 h
- Tmax ([1]; single oral dose 1 mg): 8.0 ± 2.1 h
- AUC(0-infinity) ([1]; single oral dose 1 mg): 840 ± 309
- AUC(0-168) ([1]; single oral dose 3 mg): 2575 ± 1027 ng·h/mL
- AUC(0-last non-BLQ) ([1]; single oral dose 3 mg): 2234 ± 1259 ng·h/mL
- AUMC ([1]; single oral dose 3 mg): 214719 ± 133999 hours^2*ng/ml
- Cavg (0-168) ([1]; single oral dose 3 mg): 15.33 ± 6.11 ng/mL
- Cl/F ([1]; single oral dose 3 mg): 1.21 ± 0.49 L/h
- Cmax ([1]; single oral dose 3 mg): 53.21 ± 19.43 ng/mL
- Estimated amount circulating ([1]; single oral dose 3 mg): 1.12 ± 0.41 mg
- Estimated minimum bioavailability ([1]; single oral dose 3 mg): 37 ± 14%
- Ke ([1]; single oral dose 3 mg): 0.015 ± 0.0027 h⁻¹
- MTT ([1]; single oral dose 3 mg): 70 ± 16 h
- T1/2 ([1]; single oral dose 3 mg): 48 ± 10 h
- Tmax ([1]; single oral dose 3 mg): 8.2 ± 3.9 h
- AUC(0-infinity) ([1]; single oral dose 3 mg): 2886 ± 1262
- AUC(0-168) ([1]; single oral dose 10 mg): 6138 ± 2259 ng·h/mL
- AUC(0-last non-BLQ) ([1]; single oral dose 10 mg): 5634 ± 2705 ng·h/mL
- AUMC ([1]; single oral dose 10 mg): 333614 ± 227308 hours^2*ng/ml
- Cavg (0-168) ([1]; single oral dose 10 mg): 36.53 ± 13.44 ng/mL
- Cl/F ([1]; single oral dose 10 mg): 1.83 ± 0.84 L/h
- Cmax ([1]; single oral dose 10 mg): 131.7 ± 20.47 ng/mL
- Estimated amount circulating ([1]; single oral dose 10 mg): 2.77 ± 0.62 mg
- Estimated minimum bioavailability ([1]; single oral dose 10 mg): 28 ± 6%
- Ke ([1]; single oral dose 10 mg): 0.0191 ± 0.0026 h⁻¹
- MTT ([1]; single oral dose 10 mg): 46 ± 20 h
- T1/2 ([1]; single oral dose 10 mg): 37 ± 5 h
- Tmax ([1]; single oral dose 10 mg): 7.1 ± 1.9 h
- AUC(0-infinity) ([1]; single oral dose 10 mg): 6395 ± 2551
- AUC(0-168) ([1]; single oral dose 30 mg): 23243 ± 7277 ng·h/mL
- AUC(0-last non-BLQ) ([1]; single oral dose 30 mg): 23243 ± 7277 ng·h/mL
- AUMC ([1]; single oral dose 30 mg): 1463889 ± 520387 hours^2*ng/ml
- Cavg (0-168) ([1]; single oral dose 30 mg): 138.4 ± 43.32 ng/mL
- Cl/F ([1]; single oral dose 30 mg): 1.37 ± 0.58 L/h
- Cmax ([1]; single oral dose 30 mg): 495.0 ± 154.2 ng/mL
- Estimated amount circulating ([1]; single oral dose 30 mg): 10.40 ± 3.24 mg
- Estimated minimum bioavailability ([1]; single oral dose 30 mg): 35 ± 11%
- Ke ([1]; single oral dose 30 mg): 0.018 ± 0.0021 h⁻¹
- MTT ([1]; single oral dose 30 mg): 59 ± 4 h
- T1/2 ([1]; single oral dose 30 mg): 39 ± 4 h
- Tmax ([1]; single oral dose 30 mg): 6.0 ± 0.9 h
- AUC(0-infinity) ([1]; single oral dose 30 mg): 24668 ± 7941
- AUC(0-168) ([1]; single oral dose 50 mg): 58816 ± 31297 ng·h/mL
- AUC(0-last non-BLQ) ([1]; single oral dose 50 mg): 58816 ± 31297 ng·h/mL
- AUMC ([1]; single oral dose 50 mg): 4719948 ± 3532459 hours^2*ng/ml
- Cavg (0-168) ([1]; single oral dose 50 mg): 350.1 ± 186.3 ng/mL
- Cl/F ([1]; single oral dose 50 mg): 0.97 ± 0.46 L/h
- Cmax ([1]; single oral dose 50 mg): 1172 ± 459.4 ng/mL
- Estimated amount circulating ([1]; single oral dose 50 mg): 24.61 ± 9.65 mg
- Estimated minimum bioavailability ([1]; single oral dose 50 mg): 49%
- Ke ([1]; single oral dose 50 mg): 0.015 ± 0.0027 h⁻¹
- MTT ([1]; single oral dose 50 mg): 67 ± 14 h
- T1/2 ([1]; single oral dose 50 mg): 47 ± 9 h
- Tmax ([1]; single oral dose 50 mg): 6.5 ± 0.8 h
- estimated bioavailability, average of the other 4 subjects ([1]; single oral dose 50 mg): 38%
- estimated bioavailability, 2 subjects with particularly high values ([1]; single oral dose 50 mg, individual subjects): 75% and 71%
- AUC(0-infinity) ([1]; single oral dose 50 mg): 65628 ± 37141
- dose linearity of AUC and Cmax ([1]; single oral doses 1-50 mg): dose-linear and nearly dose-proportional
- highest estimated bioavailability observed in individuals ([1]; single oral doses 1-50 mg): 75%
- lowest estimated bioavailability observed in individuals ([1]; single oral doses 1-50 mg): 18%
